Results on one compound are retold here after article PMC5911580, “YL143, a novel mutant selective irreversible EGFR inhibitor, overcomes EGFR^L858R, T790M‐mutant resistance in vitro and in vivo” (Cancer Medicine, 2018).

For assay [1], the target named is AKT3 (Homo sapiens, UniProt Q9Y243). Put plainly: Z'-Lyte kinase panel, AKT3. To be noted: 1.5 hrs incubation. The format is biochemical. As to the method: (§1) Kinase activity assays were performed using the FRET-based Z′-Lyte assay according to the manufacturer’s instructions. The compounds were incubated with the kinase reaction mixture for 1.5 hrs before measurement. The data are means from two independent experiments and the variations are below 20%.
Sequence of AKT3 (Q9Y243 whole entry, species assumed): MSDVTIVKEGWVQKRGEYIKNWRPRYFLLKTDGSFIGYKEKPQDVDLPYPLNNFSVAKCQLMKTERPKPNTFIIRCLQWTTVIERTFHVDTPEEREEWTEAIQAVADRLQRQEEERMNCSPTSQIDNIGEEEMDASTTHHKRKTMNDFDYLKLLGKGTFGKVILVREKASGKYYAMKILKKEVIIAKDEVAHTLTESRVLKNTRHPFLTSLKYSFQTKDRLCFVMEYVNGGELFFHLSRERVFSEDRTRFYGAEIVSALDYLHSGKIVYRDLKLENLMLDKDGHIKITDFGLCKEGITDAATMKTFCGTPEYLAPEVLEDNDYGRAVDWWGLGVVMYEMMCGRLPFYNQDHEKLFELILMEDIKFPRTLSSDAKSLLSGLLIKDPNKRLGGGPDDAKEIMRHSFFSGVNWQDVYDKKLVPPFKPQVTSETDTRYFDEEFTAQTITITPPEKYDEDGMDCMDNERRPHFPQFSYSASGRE

The test system of assay [2] is EGFR signal pathway in A431 cells. The experiment in a line: Western blot of EGFR signaling in A431 cells. Particulars: compared with H1975. The format is cell-based. The procedure:
(§2) Cells were treated with various concentrations of compound for designed time. Then, cells were lysed using 1 × SDS sample lysis buffer (CST recommended) with protease and phosphatase inhibitors. Cell lysates were loaded and electrophoresed onto 8–12% SDS‐PAGE gel, and then, separated proteins were transferred to a PVDF film. The film was blocked with 5% fat‐free milk in TBS solution containing 0.5% Tween‐20 for 4 h at room temperature and then incubated with corresponding primary antibody (1:1000–1:200) overnight at 4°C. After washing with TBST, HRP‐conjugated secondary antibody was incubated for 2 h. And the protein signals were visualized by ECL Western Blotting Detection Kit (Thermo Scientific, Waltham, MA) and detected with Amersham Imager 600 system (GE, America).
The selective EGFR ^L858R/T790M inhibition of YL143 was investigated in H1975, HCC827, A549, and A431 cancer cells harboring different statuses of EGFR by Western blotting analysis (Fig. 2A).
A general note: In western blotting, separated proteins are transferred to a membrane and probed.

Assay [3] relates to HCC827 (EGFR^del 19) cells. Put plainly: CCK-8 cell growth assay, HCC827. It is filed as cell-based. To be noted: Homo sapiens, HCC827; CCK-8, 72 h; AV ± SD; read-out: antiproliferative IC50 HCC827. As to the method: Cells were seeded into 96‐well plates at a density of 1500~3000/well in complete medium overnight. Then, cells were treated with various concentrations (0.01~1000 nmol/L) of YL143 for additional 3 days. Viable cell numbers were determined by Cell Counting Kit 8 (CCK8, CK04, Dojindo Laboratories, Japan). Each assay consisted of three replicate wells and repeated at least three times. […] Each IC50 value was expressed as mean ± SD.
Background: Formazan colour is commonly taken as a measure of viable cells.

In assay [4] the test system is phosphorylation of EGFR and Erk in H1975 cells. The experiment in a line: Western blot of EGFR signaling in H1975 cells. It is filed as cell-based, human. To be noted: 4 h. The procedure:
as §2
Cells were treated with or without compound YL143 for 4 h at indicated concentration, respectively. Cells were harvested for Western blot analysis. […] NCI‐H1975 cells were treated with or without compound YL143(100 nmol/L) for 4 h, and then the medium with compound was removed and fresh medium was added. At the indicated time points, cells were harvest and proteins were extracted and subjected to Western blot analysis.

Assay [5] relates to CDK2, CDK4, cyclin D2, cyclin E, caspase-3, caspase-9 in H1975 cells. Put plainly: Western blot of cell cycle and apoptosis proteins in H1975 cells. The format is cell-based, human. Particulars: 3 to 300 nmol/L, 48 h. As to the method:
as §2
Figure 3 YL143 induces G0/G1 cell cycle arrest and apoptosis in H1975 cells. (A) YL143 induces G0/G1 cell cycle arrest in H1975 cells H1975 cells were treated with 3, 30 or 300 nmol/L for 48 h before DNA labeling by propidium iodide and cell cycle analysis by flow cytometry. (B) YL143 induces apoptosis in H1975 cells. H1975 cells were treated with 3, 30 or 300 nmol/L for 48 h before DNA labeling by Annexin V and 7‐AAD and cell apoptosis analysis by flow cytometry. (C) The effect of YL143 on the expression of CDK4, Cyclin D2, CDK2, Cyclin E, Caspase‐9 and Caspase‐3 was tested by western blotting. […]

The target of assay [6] is CSF1R (Homo sapiens, UniProt P07333). The experiment in a line: Z'-Lyte kinase panel, CSF1R. It is filed as biochemical. To be noted: 1.5 hrs incubation. The procedure: as §1
Assay [7] addresses EGFR^L858R/T790M (Homo sapiens, UniProt P00533, L858R/T790M). The experiment in a line: FRET-based Z'-Lyte kinase assay, EGFR L858R/T790M. The format is biochemical. Set-up: purchased Invitrogen. The procedure:
(§3) The kinase activity assay was performed and optimized according to the instructions of Z’‐LYTE™ kinase assay kits from the manufacturer (PV4879, Life, America). In our experiments, 10 concentration gradients from 0.01 nmol/L to 1.0 μmol/L were used for all the compounds.

The target in assay [8] is Abl (Homo sapiens, UniProt P00519). The experiment in a line: Z'-Lyte kinase panel, Abl. The format is biochemical. Particulars: 1.5 hrs incubation. The procedure: as §1
Sequence of Abl (P00519 whole entry, species assumed): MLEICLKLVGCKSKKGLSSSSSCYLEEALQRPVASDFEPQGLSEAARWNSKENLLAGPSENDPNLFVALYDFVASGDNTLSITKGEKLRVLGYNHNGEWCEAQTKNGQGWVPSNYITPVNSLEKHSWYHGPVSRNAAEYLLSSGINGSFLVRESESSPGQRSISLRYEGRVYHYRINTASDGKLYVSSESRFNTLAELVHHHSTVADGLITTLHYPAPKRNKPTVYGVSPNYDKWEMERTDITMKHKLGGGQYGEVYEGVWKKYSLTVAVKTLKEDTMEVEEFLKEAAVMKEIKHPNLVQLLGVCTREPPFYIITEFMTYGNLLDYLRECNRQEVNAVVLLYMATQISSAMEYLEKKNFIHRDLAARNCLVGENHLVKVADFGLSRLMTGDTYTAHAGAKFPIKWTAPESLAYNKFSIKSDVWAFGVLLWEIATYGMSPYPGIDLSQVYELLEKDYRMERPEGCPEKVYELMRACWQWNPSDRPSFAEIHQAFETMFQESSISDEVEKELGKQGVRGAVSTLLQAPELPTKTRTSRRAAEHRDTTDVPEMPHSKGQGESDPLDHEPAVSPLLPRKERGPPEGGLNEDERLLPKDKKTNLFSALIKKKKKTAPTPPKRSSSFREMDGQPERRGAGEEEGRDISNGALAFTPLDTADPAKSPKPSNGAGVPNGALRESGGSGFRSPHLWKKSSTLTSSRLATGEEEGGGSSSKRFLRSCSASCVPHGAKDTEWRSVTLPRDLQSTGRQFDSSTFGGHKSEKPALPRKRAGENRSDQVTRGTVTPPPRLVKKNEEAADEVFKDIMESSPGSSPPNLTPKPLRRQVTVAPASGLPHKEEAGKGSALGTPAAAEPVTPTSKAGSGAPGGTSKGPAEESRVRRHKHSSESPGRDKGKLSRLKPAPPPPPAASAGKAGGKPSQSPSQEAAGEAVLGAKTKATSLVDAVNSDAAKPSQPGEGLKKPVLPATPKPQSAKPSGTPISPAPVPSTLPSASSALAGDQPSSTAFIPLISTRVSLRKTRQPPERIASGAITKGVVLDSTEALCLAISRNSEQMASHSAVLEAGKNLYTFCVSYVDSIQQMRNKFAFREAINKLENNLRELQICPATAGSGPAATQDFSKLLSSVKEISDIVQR
Assay [9] concerns the target Kit (Homo sapiens, UniProt P10721). Put plainly: Z'-Lyte kinase panel, Kit. It is filed as biochemical. Particulars: 1.5 hrs incubation. As to the method: as §1
Assay [10] deals with IR (Homo sapiens, UniProt P06213). The experiment in a line: FRET-based Z'-Lyte kinase assay, IR. It is filed as biochemical. To be noted: AV ± SD; 1.5 h incubation. As to the method: as §3
Assay [11] addresses T1, EGFR^T790M (Homo sapiens, UniProt P00533, T790M).
T1 construct: purchased Invitrogen
Put plainly: FRET-based Z'-Lyte kinase assay, EGFR T790M. The format is biochemical. To be noted: AV ± SD; 1.5 h incubation. The procedure:
as §3

Assay [12] has as its target T2, EGFR^L858R (Homo sapiens, UniProt P00533, L858R).
T2 construct: purchased Invitrogen
The experiment in a line: FRET-based Z'-Lyte kinase assay, EGFR L858R. It is filed as biochemical. Particulars: AV ± SD; 1.5 h incubation. The procedure:
as §3

Where only a bound is given, the exact number is not on record here.

Sequence of EGFR^L858R/T790M (P00533 25-1210 T790M/L858R): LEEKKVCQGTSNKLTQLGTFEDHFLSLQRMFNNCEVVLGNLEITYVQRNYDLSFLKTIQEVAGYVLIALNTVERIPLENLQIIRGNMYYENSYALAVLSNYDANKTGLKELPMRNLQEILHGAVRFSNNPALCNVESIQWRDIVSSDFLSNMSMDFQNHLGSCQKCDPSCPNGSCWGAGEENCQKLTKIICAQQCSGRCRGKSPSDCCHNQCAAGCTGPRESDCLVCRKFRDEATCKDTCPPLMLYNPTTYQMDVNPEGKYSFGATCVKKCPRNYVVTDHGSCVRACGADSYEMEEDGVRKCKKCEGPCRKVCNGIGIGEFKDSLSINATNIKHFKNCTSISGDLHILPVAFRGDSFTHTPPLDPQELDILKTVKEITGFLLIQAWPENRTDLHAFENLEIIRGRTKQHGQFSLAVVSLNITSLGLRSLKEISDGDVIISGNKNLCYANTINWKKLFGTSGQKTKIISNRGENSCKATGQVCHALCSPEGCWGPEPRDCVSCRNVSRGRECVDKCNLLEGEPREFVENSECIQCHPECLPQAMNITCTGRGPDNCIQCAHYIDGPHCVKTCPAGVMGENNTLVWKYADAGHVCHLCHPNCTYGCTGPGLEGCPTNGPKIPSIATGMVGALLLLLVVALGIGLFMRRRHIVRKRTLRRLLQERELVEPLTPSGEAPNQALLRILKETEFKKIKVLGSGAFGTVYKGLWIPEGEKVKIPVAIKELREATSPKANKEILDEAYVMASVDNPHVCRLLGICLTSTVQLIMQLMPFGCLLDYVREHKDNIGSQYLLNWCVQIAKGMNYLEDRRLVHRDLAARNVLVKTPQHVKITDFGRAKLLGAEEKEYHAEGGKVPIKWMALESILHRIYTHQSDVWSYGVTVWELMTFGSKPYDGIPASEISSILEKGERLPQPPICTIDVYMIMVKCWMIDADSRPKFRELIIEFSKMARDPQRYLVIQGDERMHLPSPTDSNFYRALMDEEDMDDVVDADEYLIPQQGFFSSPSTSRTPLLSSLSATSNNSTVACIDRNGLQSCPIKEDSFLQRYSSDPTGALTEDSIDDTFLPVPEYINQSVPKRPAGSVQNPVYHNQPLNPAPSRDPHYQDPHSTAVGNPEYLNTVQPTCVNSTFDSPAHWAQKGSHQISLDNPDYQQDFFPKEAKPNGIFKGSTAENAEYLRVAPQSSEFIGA
T1 sequence (P00533 25-1210 T790M): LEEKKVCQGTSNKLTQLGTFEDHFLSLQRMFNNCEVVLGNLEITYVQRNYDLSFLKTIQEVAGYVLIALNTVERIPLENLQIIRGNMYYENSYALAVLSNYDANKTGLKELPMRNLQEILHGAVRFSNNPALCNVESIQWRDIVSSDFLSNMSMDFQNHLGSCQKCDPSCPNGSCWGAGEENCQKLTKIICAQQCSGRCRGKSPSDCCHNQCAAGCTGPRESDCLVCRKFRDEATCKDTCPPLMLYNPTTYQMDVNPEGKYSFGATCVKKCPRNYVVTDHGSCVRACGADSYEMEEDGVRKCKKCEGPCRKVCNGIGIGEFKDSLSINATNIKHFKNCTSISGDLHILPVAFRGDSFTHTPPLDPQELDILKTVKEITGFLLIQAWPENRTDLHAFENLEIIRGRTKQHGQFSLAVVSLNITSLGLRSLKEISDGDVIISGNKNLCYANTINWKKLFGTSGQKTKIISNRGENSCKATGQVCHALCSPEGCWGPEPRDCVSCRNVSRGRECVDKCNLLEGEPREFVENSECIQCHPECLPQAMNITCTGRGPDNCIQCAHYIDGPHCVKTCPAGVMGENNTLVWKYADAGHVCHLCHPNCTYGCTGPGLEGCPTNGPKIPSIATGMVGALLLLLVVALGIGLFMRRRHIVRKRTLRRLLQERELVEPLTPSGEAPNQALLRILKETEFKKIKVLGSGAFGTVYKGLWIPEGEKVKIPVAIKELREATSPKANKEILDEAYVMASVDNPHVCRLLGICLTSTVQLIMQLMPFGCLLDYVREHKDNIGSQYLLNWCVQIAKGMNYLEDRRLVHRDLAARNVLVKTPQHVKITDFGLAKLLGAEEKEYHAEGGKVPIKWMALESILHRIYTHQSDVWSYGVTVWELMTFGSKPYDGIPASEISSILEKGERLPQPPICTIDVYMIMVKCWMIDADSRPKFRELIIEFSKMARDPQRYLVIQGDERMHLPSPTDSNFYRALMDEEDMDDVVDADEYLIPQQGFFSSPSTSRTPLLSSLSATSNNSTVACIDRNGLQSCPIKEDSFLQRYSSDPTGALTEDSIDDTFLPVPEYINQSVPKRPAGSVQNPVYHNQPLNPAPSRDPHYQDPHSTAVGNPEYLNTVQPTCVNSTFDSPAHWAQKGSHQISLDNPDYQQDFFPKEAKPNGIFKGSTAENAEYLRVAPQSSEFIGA
Sequence of Kit (P10721 26-976, species assumed): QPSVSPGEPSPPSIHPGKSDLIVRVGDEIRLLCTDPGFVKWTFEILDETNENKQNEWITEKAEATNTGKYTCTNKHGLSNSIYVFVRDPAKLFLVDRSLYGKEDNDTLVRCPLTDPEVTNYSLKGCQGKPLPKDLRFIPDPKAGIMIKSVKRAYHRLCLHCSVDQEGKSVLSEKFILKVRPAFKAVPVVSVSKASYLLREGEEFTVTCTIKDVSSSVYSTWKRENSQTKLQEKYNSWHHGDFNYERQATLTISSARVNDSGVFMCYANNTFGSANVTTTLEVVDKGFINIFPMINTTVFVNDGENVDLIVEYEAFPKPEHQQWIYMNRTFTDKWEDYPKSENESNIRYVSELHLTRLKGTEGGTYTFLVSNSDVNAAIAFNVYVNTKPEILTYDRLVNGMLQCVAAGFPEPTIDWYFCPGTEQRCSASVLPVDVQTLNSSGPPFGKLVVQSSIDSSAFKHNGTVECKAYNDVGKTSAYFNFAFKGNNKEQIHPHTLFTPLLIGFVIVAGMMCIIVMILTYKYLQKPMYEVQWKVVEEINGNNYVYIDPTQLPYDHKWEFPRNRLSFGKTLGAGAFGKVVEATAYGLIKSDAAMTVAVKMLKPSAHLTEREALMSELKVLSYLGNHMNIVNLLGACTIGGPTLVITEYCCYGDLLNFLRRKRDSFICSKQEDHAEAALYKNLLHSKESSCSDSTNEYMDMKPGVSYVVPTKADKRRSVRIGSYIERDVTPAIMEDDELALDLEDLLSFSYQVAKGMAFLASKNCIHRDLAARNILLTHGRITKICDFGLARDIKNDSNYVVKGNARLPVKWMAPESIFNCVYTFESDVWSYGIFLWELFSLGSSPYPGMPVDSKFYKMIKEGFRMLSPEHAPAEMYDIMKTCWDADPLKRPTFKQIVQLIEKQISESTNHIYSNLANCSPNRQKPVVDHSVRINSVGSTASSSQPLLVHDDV

As a reminder, the IC50 is the concentration that inhibits the measured activity by half. `C=CC(=O)Nc1cc(C)cc(-n2c(=O)cc(C)c3cnc(Nc4ccc(N5CCN(C)CC5)cc4OC)nc32)c1` [YL143, N‐(3‐(2‐((2‐Methoxy‐4‐(4‐methylpiperazin‐1‐yl)phenyl)amino)‐5‐methyl‐7‐oxopyrido [2,3‐d]pyrimidin‐8(7H)‐yl)‐5‐methylphenyl)acrylamide]: the IC50 in assay [1] was over 10000 nM; in [3], 21.1 ± 9.9 nM; in assay [6], over 10000 nM; in assay [7] (AV ± SD, 1.5 h incubation) it was 2 ± 0.3 nM; in assay [8] it was over 10000 nM; in [9], over 10000 nM. Moreover, the figures for the half-maximal inhibitory concentration (IC50) in [10], in [11] and in assay [12] were 7.5 ± 0.1 nM, 7.8 ± 1.1 nM and 49.1 ± 4.2 nM, respectively. In assay [2], the “effect on EGFR signal pathway” value is “obviously less potent”. The “phosphorylation of EGFR and Erk” value in [4] was “dose‐dependently inhibited”. The “protein levels of CDK2, CDK4, cyclin D2, cyclin E” value in [5] is recorded as “dose‐dependently decreased”. Moreover, in assay [7] (parallel comparison), the “potency factor over CO1686 and osimertinib on EGFR^L858R/T790M” value was 5–7.
